Assay results taken from the NIST ThermoML archive (doi:10.1016/j.jct.2009.05.011).

Assay: mn = molality of the nth substance listed, in mol/kg
Details: 101 kPa, Liquid, Vibrating tube method

NCC(=O)N[C@@H](Cc1ccccc1)C(=O)NCC(=O)O [glycyl-L-phenylalanylglycine] + O
Details	mass density [kg/m3]
288.15 K, m1 = 0.005986	999.628
288.15 K, m1 = 0.008946	999.888
288.15 K, m1 = 0.01159	1000.12
288.15 K, m1 = 0.01398	1000.33
288.15 K, m1 = 0.01783	1000.66
288.15 K, m1 = 0.02035	1000.89
288.15 K, m1 = 0.02318	1001.13
288.15 K, m1 = 0.0251	1001.3
303.15 K, m1 = 0.00896	996.415
303.15 K, m1 = 0.01148	996.632
303.15 K, m1 = 0.01353	996.804
303.15 K, m1 = 0.01556	996.971
303.15 K, m1 = 0.01814	997.19
303.15 K, m1 = 0.01958	997.317
303.15 K, m1 = 0.02246	997.559
303.15 K, m1 = 0.02447	997.735
313.15 K, m1 = 0.004093	992.563
313.15 K, m1 = 0.00896	992.969
313.15 K, m1 = 0.01149	993.182
313.15 K, m1 = 0.01353	993.351
313.15 K, m1 = 0.01556	993.516
313.15 K, m1 = 0.01761	993.683
313.15 K, m1 = 0.02033	993.916
313.15 K, m1 = 0.02333	994.159
313.15 K, m1 = 0.02522	994.324

NCC(=O)N1CCC[C@H]1C(=O)NCC(=O)O [glycyl-L-prolylglycine] + O
Details	mass density [kg/m3]
288.15 K, m1 = 0.02017	1000.83
288.15 K, m1 = 0.0252	1001.26
288.15 K, m1 = 0.02989	1001.66
288.15 K, m1 = 0.0347	1002.07
288.15 K, m1 = 0.04017	1002.54
288.15 K, m1 = 0.04486	1002.93
288.15 K, m1 = 0.04775	1003.19
288.15 K, m1 = 0.05375	1003.69
303.15 K, m1 = 0.02292	997.573
303.15 K, m1 = 0.02697	997.912
303.15 K, m1 = 0.03212	998.333
303.15 K, m1 = 0.03677	998.728
303.15 K, m1 = 0.04242	999.195
303.15 K, m1 = 0.04731	999.598
303.15 K, m1 = 0.05219	1000.01
313.15 K, m1 = 0.02757	994.502
313.15 K, m1 = 0.03212	994.873
313.15 K, m1 = 0.03715	995.286
313.15 K, m1 = 0.04242	995.724
313.15 K, m1 = 0.04731	996.116
313.15 K, m1 = 0.05169	996.482

CC(C)[C@H](NC(=O)CN)C(=O)NCC(=O)O [glycyl-L-valylglycine] + O
Details	mass density [kg/m3]
288.15 K, m1 = 0.01862	1000.45
288.15 K, m1 = 0.02808	1001.13
288.15 K, m1 = 0.03769	1001.83
288.15 K, m1 = 0.04662	1002.47
288.15 K, m1 = 0.05168	1002.82
288.15 K, m1 = 0.05581	1003.11
288.15 K, m1 = 0.06152	1003.53
288.15 K, m1 = 0.07369	1004.39
288.15 K, m1 = 0.08031	1004.86
303.15 K, m1 = 0.02786	997.6
303.15 K, m1 = 0.0373	998.253
303.15 K, m1 = 0.04619	998.869
303.15 K, m1 = 0.05567	999.521
303.15 K, m1 = 0.06481	1000.14
303.15 K, m1 = 0.07464	1000.82
303.15 K, m1 = 0.08365	1001.43
303.15 K, m1 = 0.09397	1002.14
313.15 K, m1 = 0.02103	993.668
313.15 K, m1 = 0.02584	993.998
313.15 K, m1 = 0.03709	994.764
313.15 K, m1 = 0.05558	996.017
313.15 K, m1 = 0.06483	996.652
313.15 K, m1 = 0.0741	997.273
313.15 K, m1 = 0.08323	997.9
313.15 K, m1 = 0.09182	998.467
